Measurements reported in patent US9771589B2, “Treating hepatitis virus infection by modulating microRNAs miR-130a, miR-130b, miR-204, or miR-1236” (priority 2013, dated 2017).

Key:
[1] = test system: HBV core protein (HBc), surface antigen (HBsAg) and e antigen (HBeAg); experiment: HBV protein expression (HBc Western blot; HBsAg, HBeAg ELISA); type: cell-based, hepatitis B virus (HBV ayw)
Source text: (§1) Anti-HBc (Dako), anti-PPARγ (Santa Cruz), anti-GAPDH, anti-PKLR, anti-G6Pase, anti-tubulin, anti-PGC1α (Origene), anti-PCK1 (Abnova), anti-GCK (Biovision), Secondary antibodies include mouse anti-rabbit-HRP, goat anti-mouse-HRP (GeneTex, Taiwan) and donkey anti-goat-HRP (Santa Cruz).
Chua, P. K., et al. Journal of virology 84, 2340-2351 (2010),

[2] = test system: HepG2 cells; experiment: Measurement of glucose production in cell culture; type: cell-based, human
Method: The glucose level of HBV transgenic mice was measured using a kit of DRI-CHEM SLIDE GLU-PIII (FUJIFILM, JAPAN). Ten microliters of mouse serum was deposited on a FUJI DRI-CHEM SLIDE GLU-PIII. Glucose oxidase (GOD) catalyzes the oxidization of sample glucose to generate hydrogen peroxide which then reacts with dye precursors and forms red dye. The optical reflection density was measured at 505 nm by the FUJI DRI-CHEM analyzer and converted into the glucose concentration […]. For the measurement of glucose concentration in cell culture, HBV producing cells (HepG2 and Q7 cells) were treated with PPARγ antagonist, GW9662 at indicated concentrations. Twenty-four hours before glucose measurement, the medium was replaced with 1 ml of glucose-free DMEM, supplemented with 2 mM sodium pyruvate. After 16 hrs incubation, 50 μl of medium was collected and the glucose concentration (mM) was measured using the glucose colorimetric assay (Biovision).

[3] = test system: HBV; experiment: HBV DNA replication after cotransfection/treatment, Southern blot; type: cell-based, hepatitis B virus (HBV ayw)
Source text: The methods to construct the miRNA expression vectors are as detailed elsewhere. Chen, H. L. et al. PloS one 7, e34116 (2012). PCR products were sub-cloned from TA cloning vector (RBC) to pSuper (OligoEngine, Inc) by Hind III digestion. All plasmids were confirmed by sequencing. Approximately 8-400 fold higher level of microRNA expression was detected by transfection and stem loop RT-PCR analysis. […] The PPARγ and PGC1α expression vectors were from GeneCopoeia.
Human hepatoma Huh7 and HepG2 cells were maintained as described previously Chua, P. K., et al. Journal of virology 84, 2340-2351 (2010), Le Pogam, S., et al., Journal of virology 79, 1871-1887 (2005). In general, the phenotype of viral replication and the effect of microRNA are stronger in HepG2 than Huh7 cells. However, Huh7 cells are easier to passage and transfect. Therefore, we used these two cell lines interchangeably.
Rosiglitazone and GW9662 were from Sigma. HepG2 and Huh7 cells were seeded in 6-well tissue culture plates at 5×10, Quasdorff, M. et al. Journal of viral hepatitis 17, 527-536 (2010) cells/well. At 24 h post-transfection, Rosiglitazone or GW9662 in 0.1% DMSO was added to medium. Culture medium was changed ever two days before harvest.
HBV core particle-associated DNA, total cellular cytoplasmic RNA, and microRNA were analyzed by Northern blot as described previously. […]

[4] = test system: glucokinase (GCK); experiment: GCK expression in stable miR-130a expressing cells; type: cell-based, human
Method: as §1
(§2) Briefly, 2 μg of total RNA was reverse transcribed into cDNA using random primers and High Capacity cDNA Reverse Transcription kit (Applied Biosystem) at 37° C. for 120 minutes. The cDNA product was then diluted 100 times for real-time PCR analysis using Power SYBR Green PCR master mix (Applied Biosystem), and the default condition in a 20 μl reaction volume by Applied Biosystems 7500 Real-Time PCR System. Data were analyzed by relative quantification methods (ΔΔCt methods) using 7500 software V2.0.1.
(§3) Approximately one million Huh7 and HepG2 cells were transiently transfected by 3 μg plasmid DNA (pSuper and pSuper-miR-130a) with Polyjet (SignaGen), followed by G418 selection for three weeks. The G418-resistant colonies were pooled together.

[5] = test system: HBV pregenomic RNA (pgRNA); experiment: HBV RNA in transfected cells, Northern blot; type: cell-based, hepatitis B virus (HBV ayw); details: HepG2, total cytoplasmic RNA of cotransfected culture
Method: HBV core particle-associated DNA, total cellular cytoplasmic RNA, and microRNA were analyzed by Northern blot as described previously. Chua, P. K., et al. Journal of virology 84, 2340-2351 (2010), Le Pogam, S., et al., Journal of virology 79, 1871-1887 (2005).

[6] = test system: 3′ UTR of PGC1α; experiment: 3′UTR luciferase reporter assay, PGC1α; type: cell-based, human; details: reporter cotransfection assay
Source text: (§4) Assay for 3′ UTR or enhancer/promoter was as described previously. Chen, H. L., et al., PloS one 7, e34116 (2012).
(§5) An upstream fragment of the miR-130a precursor (−750 to −1 nt), containing putative binding sites for NF-κB/p65, Egr-1, and CREB, was amplified by PCR from human HepG2 genomic DNA. The PCR products were separated by agarose gel electrophoresis, and the isolated DNA fragments were then cloned into the restriction enzyme digested pGL3 Basic Vector (Promega, Madison, Wis.) containing a firefly luciferase reporter (New England Biolab, Ipswich, Mass.). Various promoter deletion plasmids, containing shorter fragments upstream from the miR-130a precursor, were derived from the full-length promoter plasmid by PCR amplification and cloning using various PCR primers (Table 1 above). All the promoter plasmids were confirmed by sequencing. HuH-7 cells were transfected with promoter deletion plasmids for 48 hrs and firefly luciferase activities were then measured and normalized to each cotransfected renilla luciferase level. The full-length 3′UTRs of PPARγ, PGC1α and SP1 were amplified from genomic DNA of HepG2 cells using their respective forward and reverse primers (Table 1), and cloned into a psiCHECK-2 luciferase vector (Promega, Madison, Wis.) (Shih, C. et al. Virology 179, 871-873 (1990)). […]

[7] = test system: HBV enhancer II; experiment: HBV enhancer/promoter luciferase reporter assay; type: cell-based, hepatitis B virus; details: Huh7 cells, pGL3/enhII reporter
Source text: as §4

[8] = test system: SP1, PPAR α, CEBPb, and HNF4; experiment: Expression of other hepatic transcription factors in miR-130a expressing cell lines; type: cell-based, human
Method: as §2, §3

[9] = test system: NF-κB/p65; experiment: NF-κB/p65 protein level, Western blot; type: cell-based, human; details: stable miR-130a expressing HepG2 cells
[10] = test system: HBV 3′ UTR (nt 1521-2122); experiment: 3′ UTR luciferase reporter assay with HBV nt 1521-2122; type: cell-based, hepatitis B virus (HBV ayw); details: Huh7 cells, cotransfection with miRNA expression vector
Source text: as §4

[11] = test system: 3′ UTR of PPARγ; experiment: 3′UTR luciferase reporter assay, PPARγ; type: cell-based, human; details: reporter cotransfection assay
Source text: as §4, §5

[12] = HBV-transfected Huh7 cells, increasing concentration of compound

Compound: O=C(Nc1ccccc1)c1cc([N+](=O)[O-])ccc1Cl [GW9662, reference compound]
- HBV protein expression (secreted HBsAg and HBeAg) [1, 12]: significantly reduced
- glucose level ([2]; HepG2 cells treated with GW9662 (20 uM), irrespective of HBV-producing status): further increased
- HBV replication [3, 12]: significantly reduced

Compound: miR-130a: human microRNA, CAGUGCAAUGUUAAAAGGGCAU (SEQ ID NO:1); given as pSuper expression vector or stable expression
- HBV protein expression (HBc, HBsAg, HBeAg) ([1]; HepG2 cells): reduce HBV protein expression
- secretion of HBsAg and HBeAg ([1]; media of HepG2 cotransfected with HBV DNA, ELISA): reduces the secretion of HBsAg and HBeAg
- GCK mRNA expression ([4]; miR-130a expressing hepatocytes, RT-qPCR): increased mRNA expression
- GCK protein expression ([4]; stable miR-130a expressing HepG2 or Huh7 cells, Western blot): not reduced but increased
- glucose level ([2]; control versus miR-130a producing cells): No significant difference in glucose level
- level of HBV pregenomic RNA (pgRNA) [5]: reduced the level of HBV pregenomic RNA
- luciferase activity, reporter with 3′UTR of PGC1α [6]: significantly reduced the luciferase activity
- luciferase activity driven by HBV enhancer-II [7]: reduced the luciferase activity driven by HBV enhancer-II
- expression levels of most hepatic transcription factors examined [8]: remained unchanged
- NF-κB/p65 protein level [9]: increased significantly
- HBV DNA replication ([3]; HepG2 cells cotransfected with HBV DNA, Southern blot): inhibits HBV DNA replication
- luciferase activity, wild type HBV 3′UTR reporter [10]: no appreciable effect
- luciferase activity, reporter with 3′UTR of PPARγ [11]: significantly reduced the luciferase activity
